Data published in the supplement of paper PMC10307832.

Assays:
Test in all cases: relative viability (nuclei count vs DMSO), 5 days (fraction); higher = more cells survive
[1] = compound: C=CCNC1=C2C[C@@H](C)C[C@H](OC)[C@H](O)[C@@H](C)/C=C(\C)[C@H](OC(N)=O)[C@@H](OC)/C=C\C=C(/C)C(=O)NC(=CC1=O)C2=O [17-AAG] + CS(=O)(=O)CCNCc1ccc(-c2ccc3ncnc(Nc4ccc(OCc5cccc(F)c5)c(Cl)c4)c3c2)o1 [Lapatinib] (partner 2 µM)
How it was run: (§1)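 A single step with final 0.05% Triton X-100, 1% formaldehyde and 1 ug/ml Hoechst fixed the cells and stained nuclei 5 days after treatment. Lung cancer cell lines in 1536-well plates had been treated by pin tool the day after seeding with one drug alone or a fixed anchor-drug dose plus five library-drug doses (not always all listed) in √10 steps, and nuclei were counted on 4× images. Relative viability is the ratio of nuclei in treated wells to nuclei in vehicle wells, taken as the median of duplicate plates.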

[2] = compound: C=CCNC1=C2C[C@@H](C)C[C@H](OC)[C@H](O)[C@@H](C)/C=C(\C)[C@H](OC(N)=O)[C@@H](OC)/C=C\C=C(/C)C(=O)NC(=CC1=O)C2=O [17-AAG] + C[C@@H](Oc1cc(-c2cnn(C3CCNCC3)c2)cnc1N)c1c(Cl)ccc(F)c1Cl [Crizotinib] (partner 1 µM)
How it was run: as §1

[3] = compound: C=CCNC1=C2C[C@@H](C)C[C@H](OC)[C@H](O)[C@@H](C)/C=C(\C)[C@H](OC(N)=O)[C@@H](OC)/C=C\C=C(/C)C(=O)NC(=CC1=O)C2=O [17-AAG] + Cc1nc(Nc2ncc(C(=O)Nc3c(C)cccc3Cl)s2)cc(N2CCN(CCO)CC2)n1 [Dasatinib] (partner 0.075 µM)
How it was run: as §1

[4] = compound: C=CCNC1=C2C[C@@H](C)C[C@H](OC)[C@H](O)[C@@H](C)/C=C(\C)[C@H](OC(N)=O)[C@@H](OC)/C=C\C=C(/C)C(=O)NC(=CC1=O)C2=O [17-AAG] + Nc1nc2[nH]cc(CCc3ccc(C(=O)N[C@@H](CCC(=O)O)C(=O)O)cc3)c2c(=O)[nH]1 [Pemetrexed] (partner 0.2 µM)
How it was run: as §1

Row | Cell Line | relative viability ([1]; first compound 0.00128 µM) | relative viability ([1]; first compound 0.004048 µM) | relative viability ([1]; first compound 0.0128 µM) | relative viability ([1]; first compound 0.04048 µM) | relative viability ([1]; first compound 0.128 µM) | relative viability ([2]; first compound 0.00128 µM) | relative viability ([2]; first compound 0.004048 µM) | relative viability ([2]; first compound 0.0128 µM) | relative viability ([2]; first compound 0.04048 µM) | relative viability ([2]; first compound 0.128 µM) | relative viability ([3]; first compound 0.00128 µM) | relative viability ([3]; first compound 0.004048 µM) | relative viability ([3]; first compound 0.0128 µM) | relative viability ([3]; first compound 0.04048 µM) | relative viability ([3]; first compound 0.128 µM) | relative viability ([4]; first compound 0.00128 µM) | relative viability ([4]; first compound 0.004048 µM) | relative viability ([4]; first compound 0.0128 µM) | relative viability ([4]; first compound 0.04048 µM) | relative viability ([4]; first compound 0.128 µM)
1 | COR-L23 | 0.769 | 0.82 | 1.06 | 0.852 | 0.169 | 0.725 | 0.614 | 0.749 | 0.339 | 0.0896 | 0.58 | 0.451 | 0.504 | 0.313 | 0.0763 | 0.2 | 0.2 | 0.211 | 0.225 | 0.157
2 | NCI-H1755 | 1.06 | 0.972 | 0.772 | 0.27 | 0.165 | 0.888 | 0.841 | 0.84 | 0.588 | 0.209 | 0.478 | 0.401 | 0.324 | 0.213 | 0.118 | 0.47 | 0.404 | 0.407 | 0.355 | 0.214
3 | NCI-H1437 | 0.825 | 0.7 | 0.247 | 0.151 | 0.0848 | 0.976 | 0.806 | 0.378 | 0.126 | 0.0903 | 0.39 | 0.447 | 0.226 | 0.143 | 0.0854 | 0.348 | 0.37 | 0.246 | 0.214 | 0.154
4 | NCI-H2085 | 0.784 | 0.802 | 0.812 | 0.875 | 0.527 | 0.913 | 0.71 | 0.971 | 0.924 | 0.637 | 0.184 | 0.271 | 0.243 | 0.292 | 0.298 | 0.944 | 0.923 | 0.911 | 0.877 | 0.828
